Here are results for 24 compounds from patent publication US11208400B2, “Substituted 6-(1H-pyrazol-1-yl)pyrimidin-4-amine derivatives and uses thereof” (Bayer Aktiengesellschaft, priority 2016, dated 2021).

This experiment has as its target T1, human Npt2a (Homo sapiens, UniProt Q06495).
T1 construct: expressed in transfected cells
T1 sequence (Q06495 1-639): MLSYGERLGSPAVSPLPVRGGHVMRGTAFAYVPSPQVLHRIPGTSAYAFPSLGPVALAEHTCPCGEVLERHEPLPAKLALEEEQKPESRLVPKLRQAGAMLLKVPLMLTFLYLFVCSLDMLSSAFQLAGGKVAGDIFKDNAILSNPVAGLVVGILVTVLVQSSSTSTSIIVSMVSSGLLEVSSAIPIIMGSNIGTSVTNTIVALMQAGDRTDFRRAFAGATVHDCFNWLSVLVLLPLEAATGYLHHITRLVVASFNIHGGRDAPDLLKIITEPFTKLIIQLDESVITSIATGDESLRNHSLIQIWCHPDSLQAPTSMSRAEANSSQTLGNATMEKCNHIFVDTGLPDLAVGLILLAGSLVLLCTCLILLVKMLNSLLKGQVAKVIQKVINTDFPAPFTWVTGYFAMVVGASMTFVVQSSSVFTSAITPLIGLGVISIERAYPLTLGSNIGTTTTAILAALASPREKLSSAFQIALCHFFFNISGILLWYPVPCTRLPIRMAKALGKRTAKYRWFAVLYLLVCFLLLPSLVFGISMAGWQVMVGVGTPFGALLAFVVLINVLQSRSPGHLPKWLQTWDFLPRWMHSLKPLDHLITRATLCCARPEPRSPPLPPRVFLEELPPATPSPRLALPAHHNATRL
The experiment is described as follows: Npt2a activity cell based assay, membrane potential dye, CHO T-REx hNpt2a cells. Conditions: doxycycline-induced, depolarization by sodium phosphate influx, average or median values if tested more than once. Summed up: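 Doxycycline-induced (0.5 μg/mL, 24 h) CHO T-REx cells were loaded with membrane potential dye in sodium-free NHE buffer (pH 7.4) and exposed to compound (50 μM–1 nM, 5 min, room temperature).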
As usually defined, the IC50 is the midpoint of a concentration-inhibition curve. A high value points to lower potency. As for `CCc1c(Nc2cc(-n3nc(C)c(C(=O)N4CCC(C(F)(F)F)C4)c3C)ncn2)nn(C)c1-c1ccc(F)cc1` (stereo not drawn) [Example 272, [1-(6-{[4-ethyl-5-(4-fluorophenyl)-1-methyl-1H-pyrazol-3-yl]amino}pyrimidin-4-yl)-3,5-dimethyl-1H-pyrazol-4-yl][3-(trifluoromethyl)pyrrolidin-1-yl]methanone], the midpoint of inhibition, the IC50, lay at 340 nM.

Take `CCc1c(Nc2cc(-n3nc(C)c4c3CCC4=O)ncn2)nn(C)c1-c1ccc(F)cc1` [Example 273, 1-(6-{[4-ethyl-5-(4-fluorophenyl)-1-methyl-1H-pyrazol-3-yl]amino}pyrimidin-4-yl)-3-methyl-5,6-dihydrocyclopenta[c]pyrazol-4(1H)-one]: the IC50 is 120 nM.

Compound `CCc1c(Nc2cc(-n3nc4c(c3C)C(=O)CC4)ncn2)nn(C)c1-c1ccc(F)cc1` [Example 274, 2-(6-{[4-ethyl-5-(4-fluorophenyl)-1-methyl-1H-pyrazol-3-yl]amino}pyrimidin-4-yl)-3-methyl-5,6-dihydrocyclopenta[c]pyrazol-4(2H)-one] yielded a half-maximal inhibitory concentration (IC50) of 44 nM.

The compound `Cc1cc(C)n(-c2cc(Nc3nn(C)c(-c4ccc(F)cc4)c3CN3CC(C(F)(F)F)C3)ncn2)n1` [Example 275, 6-(3,5-dimethyl-1H-pyrazol-1-yl)-N-[5-(4-fluorophenyl)-1-methyl-4-{[3-(trifluoromethyl)azetidin-1-yl]methyl}-1H-pyrazol-3-yl]pyrimidin-4-amine] had an IC50 of 1050 nM.

For the compound `Cc1nn(-c2cc(Nc3nn(C)c(-c4ccc(F)cc4)c3Cl)ncn2)c(C)c1C(C)(C)O` [Example 276, 2-[1-(6-{[4-chloro-5-(4-fluorophenyl)-1-methyl-1H-pyrazol-3-yl]amino}pyrimidin-4-yl)-3,5-dimethyl-1H-pyrazol-4-yl]propan-2-ol], the IC50 came out at 25 nM.

Compound `Cc1nn(-c2cc(Nc3c(Cl)c(-c4ccc(F)cc4)nn3C)ncn2)c(C)c1C(C)(C)O` [Example 277, 2-[1-(6-{[4-chloro-3-(4-fluorophenyl)-1-methyl-1H-pyrazol-5-yl]amino}pyrimidin-4-yl)-3,5-dimethyl-1H-pyrazol-4-yl]propan-2-ol] came in with an IC50 of 150 nM.

Turning to `Cc1nn(-c2cc(Nc3c(Cl)c(-c4ccc(F)cc4)nn3C)ncn2)c(C(C)(C)O)c1Cl` [Example 278, 2-[4-chloro-1-(6-{[4-chloro-3-(4-fluorophenyl)-1-methyl-1H-pyrazol-5-yl]amino}pyrimidin-4-yl)-3-methyl-1H-pyrazol-5-yl]propan-2-ol], the IC50 was determined as 86 nM.

Compound `CCOC(=O)Cc1c(C)nn(-c2cc(Nc3c(C)c(-c4ccc(F)cc4)nn3CC3CC3)ncn2)c1C` [Example 281, ethyl [1-(6-{[1-(cyclopropylmethyl)-3-(4-fluorophenyl)-4-methyl-1H-pyrazol-5-yl]amino}pyrimidin-4-yl)-3,5-dimethyl-1H-pyrazol-4-yl]acetate] showed an IC50 of 16 nM.

Take `Cc1nn(-c2cc(Nc3c(C)c(-c4ccc(F)cc4)nn3CC3CC3)ncn2)c(C)c1CO` [Example 282, [1-(6-{[1-(cyclopropylmethyl)-3-(4-fluorophenyl)-4-methyl-1H-pyrazol-5-yl]amino}pyrimidin-4-yl)-3,5-dimethyl-1H-pyrazol-4-yl]methanol]: the IC50 came out at 73 nM.

Consider `CCOC(=O)c1c(C)nn(-c2cc(Nc3c(C)c(-c4ccc(OC(F)(F)F)cc4)nn3CC3CC3)ncn2)c1C` [Example 284, ethyl 1-[6-({1-(cyclopropylmethyl)-4-methyl-3-[4-(trifluoromethoxy)phenyl]-1H-pyrazol-5-yl}amino)pyrimidin-4-yl]-3,5-dimethyl-1H-pyrazole-4-carboxylate], for which the IC50 was determined as 25 nM.

`CCOC(=O)c1c(C)nn(-c2cc(Nc3c(C)c(-c4ccc(C(F)(F)F)cc4)nn3CC3CC3)ncn2)c1C` [Example 285, ethyl 1-[6-({1-(cyclopropylmethyl)-4-methyl-3-[4-(trifluoromethyl)phenyl]-1H-pyrazol-5-yl}amino)pyrimidin-4-yl]-3,5-dimethyl-1H-pyrazole-4-carboxylate] registered an IC50 of 140 nM.

In the case of `Cc1c(-c2ccc(C#N)cc2)nn(CC2CC2)c1Nc1cc(-n2nc(C(C)C)cc2C)ncn1` [Example 286, 4-[1-(cyclopropylmethyl)-4-methyl-5-({6-[5-methyl-3-(propan-2-yl)-1H-pyrazol-1-yl]pyrimidin-4-yl}amino)-1H-pyrazol-3-yl]benzonitrile], the half-inhibitory concentration (IC50) turned out to be 93 nM.

In the case of `Cc1nn(-c2cc(Nc3c(C)c(-c4ccc(F)cc4)nn3CC3CC3)ncn2)c(C)c1CC1(O)CC1` [Example 287, 1-{[1-(6-{[1-(cyclopropylmethyl)-3-(4-fluorophenyl)-4-methyl-1H-pyrazol-5-yl]amino}pyrimidin-4-yl)-3,5-dimethyl-1H-pyrazol-4-yl]methyl}cyclopropanol], half-maximal inhibition (IC50) required 5 nM.

As to `Cc1nn(-c2cc(Nc3c(C)c(-c4ccc(F)cc4)nn3CC3CC3)ncn2)c(C)c1C#N` [Example 288, 1-(6-{[1-(cyclopropylmethyl)-3-(4-fluorophenyl)-4-methyl-1H-pyrazol-5-yl]amino}pyrimidin-4-yl)-3,5-dimethyl-1H-pyrazole-4-carbonitrile], the midpoint of inhibition, the IC50, lay at 16 nM.

Compound `Cc1nn(-c2cc(Nc3c(C)c(-c4ccc(OC(F)(F)F)cc4)nn3CC3CC3)ncn2)c(C)c1C(C)(C)O` [Example 289, 2-{1-[6-({1-(cyclopropylmethyl)-4-methyl-3-[4-(trifluoromethoxy)phenyl]-1H-pyrazol-5-yl}amino)pyrimidin-4-yl]-3,5-dimethyl-1H-pyrazol-4-yl}propan-2-ol] registered an IC50 of 23 nM.

`Cc1nn(-c2cc(Nc3c(C)c(-c4ccc(OC(F)(F)F)cc4)nn3CC3CC3)ncn2)c(C(C)(C)O)c1Cl` [Example 290, 2-{4-chloro-1-[6-({1-(cyclopropylmethyl)-4-methyl-3-[4-(trifluoromethoxy)phenyl]-1H-pyrazol-5-yl}amino)pyrimidin-4-yl]-3-methyl-1H-pyrazol-5-yl}propan-2-ol]: the IC50 is 170 nM.

The compound `Cc1cc(C(C)(C)O)n(-c2cc(Nc3c(C)c(-c4ccc(OC(F)(F)F)cc4)nn3CC3CC3)ncn2)n1` [Example 291, 2-{1-[6-({1-(cyclopropylmethyl)-4-methyl-3-[4-(trifluoromethoxy)phenyl]-1H-pyrazol-5-yl}amino)pyrimidin-4-yl]-3-methyl-1H-pyrazol-5-yl}propan-2-ol] came in with an IC50 of 110 nM.

`Cc1nn(-c2cc(Nc3c(C)c(-c4ccc(C(F)(F)F)cc4)nn3CC3CC3)ncn2)c(C)c1C(C)(C)O` [Example 292, 2-{1-[6-({1-(cyclopropylmethyl)-4-methyl-3-[4-(trifluoromethyl)phenyl]-1H-pyrazol-5-yl}amino)pyrimidin-4-yl]-3,5-dimethyl-1H-pyrazol-4-yl}propan-2-ol] gave a 50% inhibitory concentration (IC50) of 240 nM.

For `Cc1cc(C(C)(C)O)n(-c2cc(Nc3c(C)c(-c4ccc(C(F)(F)F)cc4)nn3CC3CC3)ncn2)n1` [Example 293, 2-{1-[6-({1-(cyclopropylmethyl)-4-methyl-3-[4-(trifluoromethyl)phenyl]-1H-pyrazol-5-yl}amino)pyrimidin-4-yl]-3-methyl-1H-pyrazol-5-yl}propan-2-ol], the IC50 turned out to be 570 nM.

In the case of `Cc1nn(-c2cc(Nc3c(C)c(-c4ccc(C(F)(F)F)cc4)nn3CC3CC3)ncn2)c(C(C)(C)O)c1Cl` [Example 294, 2-{4-chloro-1-[6-({1-(cyclopropylmethyl)-4-methyl-3-[4-(trifluoromethyl)phenyl]-1H-pyrazol-5-yl}amino)pyrimidin-4-yl]-3-methyl-1H-pyrazol-5-yl}propan-2-ol], 1400 nM corresponded to half-maximal inhibition (IC50).

For the compound `Cc1nn(-c2cc(Nc3c(C)c(-c4ccc(F)cc4)nn3CC3CC3)ncn2)c(C)c1C(O)(C(F)(F)F)C(F)(F)F` [Example 295, 2-[1-(6-{[1-(cyclopropylmethyl)-3-(4-fluorophenyl)-4-methyl-1H-pyrazol-5-yl]amino}pyrimidin-4-yl)-3,5-dimethyl-1H-pyrazol-4-yl]-1,1,1,3,3,3-hexafluoropropan-2-ol], inhibition was half-maximal at 13 nM (IC50).

`CCc1c(Nc2cc(-n3nc(C)c(CN4CC(F)C4)c3C)ncn2)nn(C)c1-c1ccc(F)cc1` [Example 296, N-[4-ethyl-5-(4-fluorophenyl)-1-methyl-1H-pyrazol-3-yl]-6-{4-[(3-fluoroazetidin-1-yl)methyl]-3,5-dimethyl-1H-pyrazol-1-yl}pyrimidin-4-amine] had an IC50 of 117 nM.

Take `CCc1c(Nc2cc(-n3nc(C)c(CN4CCN(C)CC4)c3C)ncn2)nn(C)c1-c1ccc(F)cc1` [Example 297, 6-{3,5-dimethyl-4-[(4-methylpiperazin-1-yl)methyl]-1H-pyrazol-1-yl}-N-[4-ethyl-5-(4-fluorophenyl)-1-methyl-1H-pyrazol-3-yl]pyrimidin-4-amine]: the half-inhibitory concentration (IC50) was 1430 nM.

`Cc1nn(-c2cc(Nc3c(C)c(-c4ccc(C#N)cc4)nn3C)ncn2)c(C)c1C(C)(C)O` [Example 298, 4-[5-({6-[4-(2-hydroxypropan-2-yl)-3,5-dimethyl-1H-pyrazol-1-yl]pyrimidin-4-yl}amino)-1,4-dimethyl-1H-pyrazol-3-yl]benzonitrile]: 17 nM corresponded to half-maximal inhibition (IC50).
